Data: patent US20230022724A1, “NOVEL IMIDAZOPYRAZINE DERIVATIVES” (Hoffmann-La Roche Inc., priority 2018, published 2023)
Where a name gives a salt, the structure may show the parent alone.

System: Acinetobacter baumannii ATCC17961
Experiment: Antimicrobial susceptibility testing: 90% growth inhibitory concentration (IC90) determination
Format: cell-based
Conditions: Acinetobacter baumannii ATCC17961, Iso-Sensitest broth, OD 600 nm over 16 h
How it was run: (§1)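 Compounds in twofold series (e.g. 50 to 0.097 μM final) in Iso-Sensitest broth, inoculated at ~5×10^5 CFU/ml, incubated at 35±2° C. OD600 was read every 20 minutes for 16 h. IC90 was derived from growth inhibition during logarithmic phase.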

| SMILES | IC90 |
| --- | --- |
| COc1ccc(-c2cnc3c(Nc4cc(F)c(C(=O)N5CCN(C(=O)[C@@H]6C[C@@H](O)CN6)CC5)c(Br)c4)nccn23)c(F)c1F [Example 109, (4-(2-bromo-4-((3-(2,3-difluoro-4-methoxyphenyl)imidazo[1,2-a]pyrazin-8-yl)amino)-6-fluorobenzoyl)piperazin-1-yl)((2S,4R)-4-hydroxypyrrolidin-2-yl)methanone dihydrochloride] | 69 nM |
| COc1ccc(-c2cnc3c(Nc4cc(F)c(C(=O)N5CCN(C(=O)[C@@H]6C[C@@H](O)CN6)CC5)c(Cl)c4)nccn23)c(F)c1F [Example 50, (4-(2-chloro-4-((3-(2,3-difluoro-4-methoxyphenyl)imidazo[1,2-a]pyrazin-8-yl)amino)-6-fluorobenzoyl)piperazin-1-yl)((2S,4R)-4-hydroxypyrrolidin-2-yl)methanone dihydrochloride] | 82.1 nM |
| COc1ccc(-c2cnc3c(Nc4cc(F)c(C(=O)N5CCN(C(=O)[C@@H]6C[C@@H](O)CN6)CC5)c(F)c4)nccn23)c(F)c1F [Example 49, (4-(4-((3-(2,3-difluoro-4-methoxyphenyl)imidazo[1,2-a]pyrazin-8-yl)amio)-2,6-difluorobenzoyl)piperazin-1-yl)((2S,4R)-4-hydroxypyrrolidin-2-yl)methanone dihydrochloride] | 72.2 nM |
| CNCC1(O)CCN(C(=O)c2ccc(Nc3nccn4c(-c5ccc(OC)c(F)c5)cnc34)cc2Cl)CC1 [Example 110, (2-chloro-4-((3-(3-fluoro-4-methoxyphenyl)imidazo[1,2-a]pyrazin-8-yl)amino)phenyl)(4-hydroxy-4-((methylamino)methyl)piperidin-1-yl)methanone] | 80 nM |
| O=C(c1ccc(Nc2nccn3c(-c4ccc(OC(F)F)c(F)c4F)cnc23)cc1F)N1CCN(C(=O)C2CCN(CC3CCNC3)CC2)CC1 (stereo not drawn) [Example 114, (4-(4-((3-(4-(difluoromethoxy)-2,3-difluorophenyl)imidazo[1,2-a]pyrazin-8-yl)amino)-2-fluorobenzoyl)piperazin-1-yl)(1-(pyrrolidin-3-ylmethyl)piperidin-4-yl)methanone bis(2,2,2-trifluoroacetate)] | 56 nM |
| CNCC1(O)CCN(C(=O)c2ccc(Nc3nccn4c(-c5ccc(OC)c(F)c5F)cnc34)cc2Cl)CC1 [Example 111, (2-chloro-4-((3-(2,3-difluoro-4-methoxyphenyl)imidazo[1,2-a]pyrazin-8-yl)amino)phenyl)(4-hydroxy-4-((methylamino)methyl)piperidin-1-yl)methanone] | 68 nM |

Further lines, results first:

| IC90 | SMILES |
| --- | --- |
| 33.9 nM | N#CCOc1ccc(-c2cnc3c(Nc4ccc(C(=O)N5CCN(C(=O)[C@@H]6C[C@@H](O)CN6)CC5)c(Cl)c4)nccn23)c(Cl)c1F [Example 33, 2-[3-chloro-4-[8-[3-chloro-4-[4-[(2S,4R)-4-hydroxypyrrolidine-2-carbonyl]piperazine-1-carbonyl]anilino]imidazo[1,2-a]pyrazin-3-yl]-2-fluoro-phenoxy]acetonitrile Formate] |
| 22 nM | O=C(c1ccc(Nc2nccn3c(-c4ccc(OCF)c(F)c4F)cnc23)cc1Cl)N1CCN(C(=O)[C@@H]2C[C@@H](O)CN2)CC1 [Example 112, [2-chloro-4-[[3-[2,3-difluoro-4-(fluoromethoxy)phenyl]imidazo [1,2-a]pyrazin-8-yl]amino]phenyl]-[4-[(2S,4R)-4-hydroxypyrrolidine-2-carbonyl]piperazin-1-yl]methanone trifluoroacetate] |
| 350 nM | N#CCOc1ccc(-c2cnc3c(Nc4ccc(C(=O)N5CCN(C(=O)CN6CCC(C(=O)O)C6)CC5)c(Cl)c4)nccn23)c(F)c1F (stereo not drawn) [Example 108, 1-(2-(4-(2-chloro-4-((3-(4-(cyanomethoxy)-2,3-difluorophenyl)imidazo[1,2-a]pyrazin-8-yl)amino)benzoyl)piperazin-1-yl)-2-oxoethyl)pyrrolidine-3-carboxylic acid trifluoroacetate] |
| 22 nM | O=C(c1ccc(Nc2nccn3c(-c4ccc(OC(F)F)c(F)c4F)cnc23)cc1Cl)N1CCN(C(=O)[C@@H]2C[C@@H](O)CN2)CC1 [Example 113, [2-chloro-4-[[3-[4-(difluoromethoxy)-2,3-difluoro-phenyl]imidazo[1,2-a]pyrazin-8-yl]amino]phenyl]-[4-[(2S,4R)-4-hydroxypyrrolidine-2-carbonyl]piperazin-1-yl]methanone formate] |
| 41.2 nM | COc1ccc(-c2cnc3c(Nc4ccc(C(=O)N5CCN(C(=O)[C@@H]6C[C@@H](O)CN6)CC5)c(Cl)c4)nccn23)c(F)c1F [Example 35, [2-chloro-4-[[3-(2,3-difluoro-4-methoxy-phenyl)imidazo[1,2-a]pyrazin-8-yl]amino]phenyl]-[4-[(2S,4R)-4-hydroxypyrrolidine-2-carbonyl]piperazin-1-yl]methanone formate] |

System: Acinetobacter baumannii ATCC17978
Experiment: as above
Format: cell-based
Conditions: Acinetobacter baumannii, ATCC17978, 16 h, 90% growth inhibitory concentration, Acinetobacter baumannii ATCC17978, Iso-Sensitest broth, OD 600 nm over 16 h; read-out: ATCC17978 IC90
How it was run: as §1

| SMILES | IC90 |
| --- | --- |
| NCC1CCN(C(=O)c2ccc(Nc3nccn4c(-c5ccc(OC(F)F)cc5)cnc34)cc2I)CC1 [Example 51, [4-(aminomethyl)piperidin-1-yl]-[4-[[3-[4-(difluoromethoxy)phenyl]imidazo[1,2-a]pyrazin-8-yl]amino]-2-iodophenyl]methanone; hydrochloride] | 230 nM |
| NCC1CCN(C(=O)c2ccc(Nc3nccn4c(-c5ccc(OCC#CCO)c(F)c5)cnc34)cc2Cl)CC1 [Example 76, [4-(aminomethyl)piperidin-1-yl]-[2-chloro-4-[[3-[3-fluoro-4-(4-hydroxybut-2-ynoxy)phenyl]imidazo[1,2-a]pyrazin-8-yl]amino]phenyl]methanone] | 240 nM |

Continued, values first:

| IC90 | SMILES |
| --- | --- |
| 190 nM | N#CCOc1ccc(-c2cnc3c(Nc4ccc(C(=O)N5CCC(C(=O)N6CCNCC6CO)CC5)c(Cl)c4)nccn23)c(F)c1F (stereo not drawn) [Example 30, 2-[4-[8-[3-chloro-4-[4-[2-(hydroxymethyl)piperazine-1-carbonyl]piperidine-1-carbonyl]anilino]imidazo[1,2-a]pyrazin-3-yl]-2,3-difluoro-phenoxy]acetonitrile trifluoroacetate] |
| 41 nM | N#CCOc1ccc(-c2cnc3c(Nc4ccc(C(=O)N5CCN(C(=O)N6CCN[C@@H](CO)C6)CC5)c(Cl)c4)nccn23)c(F)c1F [Example 36, 2-[4-[8-[3-chloro-4-[4-[(3R)-3-(hydroxymethyl)piperazine-1-carbonyl]piperazine-1-carbonyl]anilino]imidazo[1,2-a]pyrazin-3-yl]-2,3-difluoro-phenoxy]acetonitrile] |
| 870 nM | N#CCOc1ccc(-c2cnc3c(Nc4ccc(C(=O)N5CCC(c6ccncc6)CC5)c(Cl)c4)nccn23)c(F)c1F [Example 21, 2-[4-[8-[3-chloro-4-[4-(4-pyridyl)piperidine-1-carbonyl]anilino]imidazo[1,2-a]pyrazin-3-yl]-2,3-difluoro-phenoxy]acetonitrile] |

Same assay, conditions: Acinetobacter baumannii, ATCC17978, 16 h, read-out: ATCC17978 IC90

| SMILES | IC90 |
| --- | --- |
| COC1CN(CCN2CCN(C(=O)c3ccc(Nc4nccn5c(-c6ccc(OCC#N)c(F)c6F)cnc45)cc3Cl)CC2)C1 [Example 97, 2-[4-[8-[3-chloro-4-[4-[2-(3-methoxyazetidin-1-yl)ethyl]piperazine-1-carbonyl]anilino]imidazo[1,2-a]pyrazin-3-yl]-2,3-difluorophenoxy]acetonitrile; 2,2,2-trifluoroacetic acid] | 100 nM |
| CNCC(=O)N1CCN(C(=O)c2ccc(Nc3nccn4c(-c5ccc(OC)c(F)c5F)cnc34)cc2Cl)CC1 [Example 53, 1-[4-[2-chloro-4-[[3-(2,3-difluoro-4-methoxyphenyl)imidazo[1,2-a]pyrazin-8-yl]amino]benzoyl]piperazin-1-yl]-2-(methylamino)ethanone; hydrochloride] | 56 nM |
